# Entries after “also recorded” stand apart in the source; their conditions may differ. Like-named read-outs stand apart in the source and are kept apart here.
# Tests used:
# [1] = target: T1, human BCRP (Homo sapiens, UniProt Q9UNQ0); assay: Transporter inhibition, vesicular transport assay; type: in vitro ADME
# T1 sequence (Q9UNQ0 1-655): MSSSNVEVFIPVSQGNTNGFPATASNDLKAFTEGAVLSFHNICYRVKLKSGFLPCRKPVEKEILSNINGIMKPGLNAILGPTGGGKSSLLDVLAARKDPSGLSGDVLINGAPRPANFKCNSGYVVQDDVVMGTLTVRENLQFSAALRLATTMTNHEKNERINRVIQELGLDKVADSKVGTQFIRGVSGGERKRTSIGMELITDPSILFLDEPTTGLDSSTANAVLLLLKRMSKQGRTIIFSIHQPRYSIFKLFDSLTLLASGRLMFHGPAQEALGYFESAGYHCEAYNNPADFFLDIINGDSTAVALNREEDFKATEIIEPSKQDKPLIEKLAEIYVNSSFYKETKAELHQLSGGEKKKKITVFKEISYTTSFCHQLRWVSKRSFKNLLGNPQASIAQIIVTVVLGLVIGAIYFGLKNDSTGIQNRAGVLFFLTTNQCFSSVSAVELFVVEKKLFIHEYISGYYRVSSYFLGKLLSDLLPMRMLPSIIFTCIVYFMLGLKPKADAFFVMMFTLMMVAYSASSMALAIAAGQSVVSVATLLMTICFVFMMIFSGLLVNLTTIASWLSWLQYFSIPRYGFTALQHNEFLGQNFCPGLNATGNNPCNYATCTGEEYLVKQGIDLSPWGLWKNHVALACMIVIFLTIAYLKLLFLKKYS
# [2] = target: T2, human OATP1B1 (Homo sapiens, UniProt Q9Y6L6); assay: Transporter inhibition, uptake assay; type: in vitro ADME
# T2 sequence (Q9Y6L6 1-691): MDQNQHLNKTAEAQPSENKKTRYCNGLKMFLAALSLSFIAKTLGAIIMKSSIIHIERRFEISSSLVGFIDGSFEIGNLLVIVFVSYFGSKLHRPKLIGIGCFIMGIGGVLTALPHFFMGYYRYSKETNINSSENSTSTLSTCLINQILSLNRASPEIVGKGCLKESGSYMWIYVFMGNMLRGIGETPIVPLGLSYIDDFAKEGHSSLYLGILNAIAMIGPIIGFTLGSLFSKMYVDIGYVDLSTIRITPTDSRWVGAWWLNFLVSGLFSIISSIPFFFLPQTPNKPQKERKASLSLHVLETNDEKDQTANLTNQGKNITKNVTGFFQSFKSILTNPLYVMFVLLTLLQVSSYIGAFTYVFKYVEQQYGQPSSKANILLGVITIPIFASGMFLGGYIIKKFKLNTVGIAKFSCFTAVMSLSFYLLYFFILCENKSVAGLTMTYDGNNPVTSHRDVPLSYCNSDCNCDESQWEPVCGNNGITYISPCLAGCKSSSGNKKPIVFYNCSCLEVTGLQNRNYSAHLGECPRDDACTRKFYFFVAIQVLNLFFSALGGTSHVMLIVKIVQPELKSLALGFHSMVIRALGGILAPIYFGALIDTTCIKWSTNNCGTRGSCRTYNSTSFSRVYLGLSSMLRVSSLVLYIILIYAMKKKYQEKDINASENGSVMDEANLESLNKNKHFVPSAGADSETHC
# [3] = target: CYP1A2 (Homo sapiens, UniProt P05177); type: in vitro ADME; settings: read-out: IC50, No preincubation; CYP1A2, pooled HLMs, n = 3
# [4] = target: T3, human OCT2 (Homo sapiens, UniProt O15244); assay: Transporter inhibition, uptake assay; type: in vitro ADME
# T3 sequence (O15244 1-555): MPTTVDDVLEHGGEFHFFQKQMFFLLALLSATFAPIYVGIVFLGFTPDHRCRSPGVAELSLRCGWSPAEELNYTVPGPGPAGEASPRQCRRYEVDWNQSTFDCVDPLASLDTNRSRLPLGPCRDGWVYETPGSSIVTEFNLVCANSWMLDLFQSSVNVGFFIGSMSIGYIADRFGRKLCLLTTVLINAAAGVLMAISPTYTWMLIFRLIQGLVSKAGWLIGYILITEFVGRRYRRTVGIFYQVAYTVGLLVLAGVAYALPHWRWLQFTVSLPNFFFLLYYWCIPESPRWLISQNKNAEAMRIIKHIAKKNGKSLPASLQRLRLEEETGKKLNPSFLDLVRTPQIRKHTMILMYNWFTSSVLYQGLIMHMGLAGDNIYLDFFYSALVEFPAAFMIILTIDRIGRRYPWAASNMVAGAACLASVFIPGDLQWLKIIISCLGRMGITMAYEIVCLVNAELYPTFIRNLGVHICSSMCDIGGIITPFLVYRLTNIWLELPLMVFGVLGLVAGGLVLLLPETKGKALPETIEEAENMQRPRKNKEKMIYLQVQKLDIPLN
# [5] = test system: CYP3A4; settings: 48 h
# [6] = target: human BSEP (Homo sapiens, UniProt O95342); assay: Transporter inhibition, vesicular transport assay; type: in vitro ADME
# human BSEP, sequence (O95342 whole entry): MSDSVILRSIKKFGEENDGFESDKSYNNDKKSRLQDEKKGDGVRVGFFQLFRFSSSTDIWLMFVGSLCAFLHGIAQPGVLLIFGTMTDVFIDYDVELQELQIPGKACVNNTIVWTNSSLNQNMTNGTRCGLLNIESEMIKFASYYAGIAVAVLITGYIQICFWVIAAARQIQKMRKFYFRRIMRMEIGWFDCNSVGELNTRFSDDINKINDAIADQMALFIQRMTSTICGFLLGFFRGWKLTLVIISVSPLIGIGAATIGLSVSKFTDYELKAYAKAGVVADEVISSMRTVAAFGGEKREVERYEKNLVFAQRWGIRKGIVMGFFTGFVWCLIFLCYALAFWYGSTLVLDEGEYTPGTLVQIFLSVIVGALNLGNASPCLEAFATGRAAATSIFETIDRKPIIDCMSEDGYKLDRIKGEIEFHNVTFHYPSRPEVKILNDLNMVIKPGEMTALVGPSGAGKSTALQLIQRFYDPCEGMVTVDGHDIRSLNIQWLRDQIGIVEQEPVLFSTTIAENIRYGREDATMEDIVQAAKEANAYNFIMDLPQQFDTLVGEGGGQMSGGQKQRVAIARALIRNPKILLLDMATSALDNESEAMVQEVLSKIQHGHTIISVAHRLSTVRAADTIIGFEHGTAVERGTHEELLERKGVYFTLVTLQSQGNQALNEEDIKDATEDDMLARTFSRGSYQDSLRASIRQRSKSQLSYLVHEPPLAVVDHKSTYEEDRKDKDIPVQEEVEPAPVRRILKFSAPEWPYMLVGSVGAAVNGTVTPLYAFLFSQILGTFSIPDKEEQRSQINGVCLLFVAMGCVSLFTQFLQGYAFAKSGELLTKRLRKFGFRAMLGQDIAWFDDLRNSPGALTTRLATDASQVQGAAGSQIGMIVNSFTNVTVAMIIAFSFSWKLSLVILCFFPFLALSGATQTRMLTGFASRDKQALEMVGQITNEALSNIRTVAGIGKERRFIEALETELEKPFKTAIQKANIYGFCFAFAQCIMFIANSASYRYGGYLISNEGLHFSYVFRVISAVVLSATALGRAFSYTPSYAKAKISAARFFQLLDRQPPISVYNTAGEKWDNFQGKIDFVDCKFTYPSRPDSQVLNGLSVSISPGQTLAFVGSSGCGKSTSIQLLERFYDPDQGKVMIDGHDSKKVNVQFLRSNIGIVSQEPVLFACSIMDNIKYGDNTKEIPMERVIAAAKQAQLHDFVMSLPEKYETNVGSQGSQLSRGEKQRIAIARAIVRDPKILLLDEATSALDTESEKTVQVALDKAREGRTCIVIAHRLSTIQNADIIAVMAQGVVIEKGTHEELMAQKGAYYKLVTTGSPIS
# CYP1A2, sequence (P05177 whole entry): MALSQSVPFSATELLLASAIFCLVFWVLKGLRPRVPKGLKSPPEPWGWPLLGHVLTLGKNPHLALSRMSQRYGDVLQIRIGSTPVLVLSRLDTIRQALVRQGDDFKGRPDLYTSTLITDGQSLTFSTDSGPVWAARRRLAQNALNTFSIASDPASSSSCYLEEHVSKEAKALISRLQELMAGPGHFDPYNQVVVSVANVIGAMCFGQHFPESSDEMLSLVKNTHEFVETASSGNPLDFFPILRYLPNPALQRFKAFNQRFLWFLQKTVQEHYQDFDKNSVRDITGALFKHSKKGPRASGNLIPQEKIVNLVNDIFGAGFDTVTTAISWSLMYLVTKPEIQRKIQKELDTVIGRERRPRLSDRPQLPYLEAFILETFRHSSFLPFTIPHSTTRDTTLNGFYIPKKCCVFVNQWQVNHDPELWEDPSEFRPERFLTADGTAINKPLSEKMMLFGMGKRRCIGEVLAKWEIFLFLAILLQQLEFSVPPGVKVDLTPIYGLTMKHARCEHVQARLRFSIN
structure (smiles),measurement,setting,value
"CC1=N[C@]2(C(=O)CO)[C@@H](C[C@H]3[C@@H]4C[C@@H](O)C5=CC(=O)C=C[C@]5(C)[C@H]4[C@@H](O)C[C@@]32C)O1 [6β‐OH‐21‐desDFZ, 6β‐Hydroxy‐21‐desacetyl deflazacort]",Maximum inhibition at 50 µM,"[1]; BCRP VT, n = 3",<20 % of control
same,inhibitory interaction with transporter,"[1]; BCRP, up to 50 µM",no inhibitory interaction
same,estimated plasma Cmax/IC50 ratio,"[2]; OATP1B1, Cmax 0.34 µM, assumed 100% free",0.009
same,Maximum inhibition at 50 µM,"[2]; OATP1B1 UPT, n = 3",67 % of control
same,IC50,"[2]; OATP1B1 UPT, brackets: 95% confidence interval",36.7 µM
same,IC50,[3],> 50 µM
same,inhibitory interaction with transporter,"[4]; OCT2, up to 50 µM",did not show interaction; also recorded: no inhibitory interaction
same,Maximum inhibition at 50 µM,"[4]; OCT2 UPT, n = 3",<20 % of control
same,CYP3A4 enzyme activity fold induction,"[5]; donor one, 0.002 µM",0.600 fold
same,CYP3A4 mRNA fold induction,"[5]; donor one, 0.002 µM",0.450 fold
same,CYP3A4 enzyme activity fold induction,"[5]; donor one, 0.01 µM",0.595 fold
same,CYP3A4 mRNA fold induction,"[5]; donor one, 0.01 µM",0.583 fold
same,CYP3A4 enzyme activity fold induction,"[5]; donor one, 0.05 µM",0.604 fold
same,CYP3A4 mRNA fold induction,"[5]; donor one, 0.05 µM",0.507 fold
same,CYP3A4 enzyme activity fold induction,"[5]; donor one, 0.25 µM",0.685 fold
same,CYP3A4 mRNA fold induction,"[5]; donor one, 0.25 µM",0.681 fold
same,CYP3A4 enzyme activity fold induction,"[5]; donor one, 5 µM",0.451 fold
same,CYP3A4 mRNA fold induction,"[5]; donor one, 5 µM",0.647 fold
same,CYP3A4 enzyme activity fold induction,"[5]; donor one, 10 µM",0.446 fold
same,CYP3A4 mRNA fold induction,"[5]; donor one, 10 µM",0.890 fold
same,CYP3A4 enzyme activity fold induction,"[5]; donor one, 20 µM",0.561 fold
same,CYP3A4 mRNA fold induction,"[5]; donor one, 20 µM",1.74 fold
same,CYP3A4 enzyme activity fold induction,"[5]; donor three, 0.002 µM",0.626 fold
same,CYP3A4 mRNA fold induction,"[5]; donor three, 0.002 µM",0.562 fold
same,CYP3A4 enzyme activity fold induction,"[5]; donor three, 0.01 µM",0.543 fold
same,CYP3A4 mRNA fold induction,"[5]; donor three, 0.01 µM",0.484 fold
same,CYP3A4 enzyme activity fold induction,"[5]; donor three, 0.05 µM",0.545 fold
same,CYP3A4 mRNA fold induction,"[5]; donor three, 0.05 µM",0.450 fold
same,CYP3A4 enzyme activity fold induction,"[5]; donor three, 0.25 µM",0.668 fold
same,CYP3A4 mRNA fold induction,"[5]; donor three, 0.25 µM",0.684 fold
same,CYP3A4 enzyme activity fold induction,"[5]; donor three, 5 µM",0.542 fold
same,CYP3A4 mRNA fold induction,"[5]; donor three, 5 µM",0.615 fold
same,CYP3A4 enzyme activity fold induction,"[5]; donor three, 10 µM",0.563 fold
same,CYP3A4 mRNA fold induction,"[5]; donor three, 10 µM",0.764 fold
same,CYP3A4 enzyme activity fold induction,"[5]; donor three, 20 µM",0.637 fold
same,CYP3A4 mRNA fold induction,"[5]; donor three, 20 µM",1.33 fold
same,CYP3A4 enzyme activity fold induction,"[5]; donor two, 0.002 µM",0.601 fold
same,CYP3A4 mRNA fold induction,"[5]; donor two, 0.002 µM",0.739 fold
same,CYP3A4 enzyme activity fold induction,"[5]; donor two, 0.01 µM",0.635 fold
same,CYP3A4 mRNA fold induction,"[5]; donor two, 0.01 µM",0.714 fold
same,CYP3A4 enzyme activity fold induction,"[5]; donor two, 0.05 µM",0.657 fold
same,CYP3A4 mRNA fold induction,"[5]; donor two, 0.05 µM",0.739 fold
same,CYP3A4 enzyme activity fold induction,"[5]; donor two, 0.25 µM",0.769 fold
same,CYP3A4 mRNA fold induction,"[5]; donor two, 0.25 µM",0.817 fold
same,CYP3A4 enzyme activity fold induction,"[5]; donor two, 5 µM",0.690 fold
same,CYP3A4 mRNA fold induction,"[5]; donor two, 5 µM",0.856 fold
same,CYP3A4 enzyme activity fold induction,"[5]; donor two, 10 µM",0.637 fold
same,CYP3A4 mRNA fold induction,"[5]; donor two, 10 µM",1.02 fold
same,CYP3A4 enzyme activity fold induction,"[5]; donor two, 20 µM",0.856 fold
same,CYP3A4 mRNA fold induction,"[5]; donor two, 20 µM",1.95 fold
same,Maximum inhibition at 50 µM,"[6]; BSEP VT, n = 3",27 % of control
same,inhibitory interaction with transporter,"[6]; BSEP, up to 50 µM",no inhibitory interaction

# — PMC7982320 (Pharmacology Research & Perspectives, 2021)
